Laboratory results taken from patent US20140190726A1, “MIXTURE OF DECAFLUORO-2-METHYLBUTAN-3-ONE AND A CARRIER GAS AS A MEDIUM FOR ELECTRICAL INSULATION AND/OR FOR ELECTRIC ARC EXTINCTION IN MEDIUM-VOLTAGE” (SCHNEIDER ELECTRIC INDUSTRIES SAS, priority 2011, published 2014).

Key:
[1] = Saturation vapour pressure of C5K at minimum service temperatures; type: physicochemical; conditions: for PC5K pressure equivalent at 20° C. to the saturation vapour pressure: formula (II)
Experimental: Table I below indicates the saturation vapour pressures, noted PVSC5K, which C5K has at the temperatures of 0, −5, −10, −15, −20, −25, −30, −35 and −40° C., which are the minimum service temperatures typically found for medium- and high-voltage electrical devices.
It also indicates the pressure values, noted PC5K, which correspond at 20° C. to these saturation vapour pressures, and which are obtained by applying formula (II) above.

[2] = humans and animals; cited from earlier work

SMILES	PVSC5K saturation vapour pressure ([1]; 0° C.) [kPa]	PC5K pressure equivalent at 20° C. to the saturation vapour pressure ([1]; 0° C.) [kPa]	PVSC5K saturation vapour pressure ([1]; −5° C.) [kPa]	PC5K pressure equivalent at 20° C. to the saturation vapour pressure ([1]; −5° C.) [kPa]	PVSC5K saturation vapour pressure ([1]; −10° C.) [kPa]	PC5K pressure equivalent at 20° C. to the saturation vapour pressure ([1]; −10° C.) [kPa]	PVSC5K saturation vapour pressure ([1]; −15° C.) [kPa]	PC5K pressure equivalent at 20° C. to the saturation vapour pressure ([1]; −15° C.) [kPa]	PVSC5K saturation vapour pressure ([1]; −20° C.) [kPa]	PC5K pressure equivalent at 20° C. to the saturation vapour pressure ([1]; −20° C.) [kPa]	PVSC5K saturation vapour pressure ([1]; −25° C.) [kPa]	PC5K pressure equivalent at 20° C. to the saturation vapour pressure ([1]; −25° C.) [kPa]	PVSC5K saturation vapour pressure ([1]; −30° C.) [kPa]	PC5K pressure equivalent at 20° C. to the saturation vapour pressure ([1]; −30° C.) [kPa]	PVSC5K saturation vapour pressure ([1]; −35° C.) [kPa]	PC5K pressure equivalent at 20° C. to the saturation vapour pressure ([1]; −35° C.) [kPa]	PVSC5K saturation vapour pressure ([1]; −40° C.) [kPa]	PC5K pressure equivalent at 20° C. to the saturation vapour pressure ([1]; −40° C.) [kPa]	Toxicity [2]
O=C(C(F)(F)F)C(F)(C(F)(F)F)C(F)(F)F [C5K, decafluoro-2-methylbutan-3-one]	41.3	44.3	33.6	36.7	27.1	30.2	21.7	24.7	17.3	20.0	13.6	16.0	10.6	12.7	8.1	10.0	6.2	7.8	
FS(F)(F)(F)(F)F [SF6, sulphur hexafluoride]																			non-toxic for humans and animals
